Reference: patent publication US20080305059A1, “Skin lightening compositions and methods” (priority 2007, published 2008)

What was measured:
[1] = test system: skin of the infrascapular regions of the back; assay: Skin sensitivity: repeat occlusive patch test (nine inductive patchings plus challenge); assay type: in vivo, human; settings: 5% dilution in corn oil, 111 subjects
Description: Given the known sensitivity issues associated with commercial grade hexylresorcinol, evaluation of the skin sensitivity to the purified hexylresorcinol was also evaluated. Skin sensitivity was evaluated following the method cited in the reference Appraisal of the Safety of Chemicals in Food, Drugs and Cosmetics, published by The Association of Food and Drug Officials of The United States. The specific method employed used nine inductive patchings, not the ten cited in the reference, under occlusive patch conditions. Samples were prepared for evaluation by diluting the highly pure hexylresorcinol in corn oil to a 5% concentration, with dilutions freshly prepared on each application day. 0.2 ml of the diluted test material was dispensed onto occlusive, hypoallergenic patches and the treated patches applied directly to the skin of the infrascapular regions of the back, to the right or left of the midline of each subject: one hundred and eleven subjects were employed. […] If evidence of a reaction was found, the area of edema and/or erythema was then measured and recorded: edema being estimated by an evaluation of the skin with respect to the contour of the unaffected normal skin. […] The challenge or retest sites were monitored and scored 24 and 48 hours after application.

[2] = test system: skin color of forearm test sites; assay: Skin lightening efficacy on forearms, chromometric measurement of L value and ITA degree; assay type: in vivo, human; settings: for ΔITA Degrees / ΔL Value: applied twice a day to forearm, 15 individuals, delta = percent change from baseline; for ΔITA Degrees / ΔL Value / adverse effects: 0.5% hexylresorcinol or 2% hydroquinone composition; for adverse effects: twice a day for eight weeks on forearms
Description: The composition was prepared by mixing the components of Phase A-1 until a substantially homogenous mixture was obtained and then dispersing that mixture in Phase A-2 with moderate agitation. The mixture was mixed until a homogeneous clear dispersion was obtained. Then, the components of Phase B were combined, mixed and heated to 75° C. and then added to the Phase A-1/A-2 mixture. The so formed mixture was homogenized for 2-3 minutes to obtain a substantially uniform composition. Phase C was added and mixed until uniform. After cooling down to 50° C., Phases D, E and F in the listed order were added and mixed and the final composition then cooled down to room temperature. […] A second skin lightening composition was prepared in the same manner with the same formulation except that the highly purified hexylresorcinol was replaced with 2% hydroquinone (Eastman) and water adjusted accordingly. Each of the skin lightening compositions was applied to different test sites on the forearms of fifteen individuals. The compositions were applied twice a day, morning and evening, for eight weeks. The test sites as well as untreated sites on each forearm were evaluated by a trained clinical evaluator for brightness of skin, evenness of skin tone, appearance of skin, dryness of skin and radiance of skin using a 10 point scale prior to the first application and following Week 4 and Week 8. Each test site was evaluated for skin color change as represented by the change in L values and ITA.degree (Individual Topology Angle—COLIPA SPF test method) as measured by chromometric measurement. ITA° was calculated using the formula: ITA°=[Arc Tangent(L*−50)/b*)]180/3.1416 Wherein, L*value—lightness and b*—color in blue-yellow axis. The results of the testing were as presented in Table 3, wherein the delta represents the percent change in skin color from the baseline coloration of the untreated skin.

Structure (SMILES): CCCCCCc1ccc(O)cc1O [Hexylresorcinol, 4-Hexylresorcinol]
- primary irritation (edema or erythema) ([1]; 0.2 ml occlusive patch, nine 24 hour exposures): NON-PRIMARY IRRITANT
- sensitization after challenge patch ([1]; challenge after 10-14 day rest, scored 24 and 48 hours): NON-PRIMARY SENSITIZER
- change in skin color compared with the 2% hydroquinone composition ([2]; 0.5% composition, eight weeks twice a day): comparable, statistically significant
- ΔITA Degrees ([2]; Week 4): 27.48%
- ΔL Value ([2]; Week 4): 3.4%
- ΔITA Degrees ([2]; Week 8): 37.56%
- ΔL Value ([2]; Week 8): 4.67%
- adverse effects [2]: No adverse effects

Structure (SMILES): Oc1ccc(O)cc1 [Hydroquinone, hydroquinone, reference compound]
- ΔITA Degrees ([2]; Week 4): 27.66%
- ΔL Value ([2]; Week 4): 3.24%
- ΔITA Degrees ([2]; Week 8): 39.38%
- ΔL Value ([2]; Week 8): 4.27%
- adverse effects [2]: No adverse effects
